In paper PMC7778589, “Photosensitizer-based multimodal PSMA-targeting ligands for intraoperative detection of prostate cancer” (Theranostics, 2021):

Assays:
[1] = molecular target: T1, PSMA-expressing LS174T cells (LS174T-PSMA) (Homo sapiens, UniProt Q04609); assay: Binding and internalization assay with 111In-labeled ligands; assay type: cell-based; conditions: 2 h 37 °C
T1 construct: expressed in transfected cells; host or cells: LS174T colon carcinoma cells (human), stably transfected with pcDNA3.1-hPSMA
Protocol: Cell lines were purchased from the American Type Culture Collection. LS174T colon carcinoma cells were stably transfected with human PSMA using the plasmid pcDNA3.1-hPSMA and cultured in RPMI 1640 medium supplemented with 2 mM glutamine, 10% FCS, and 0.3 mg/ml G418 at 37 °C in a humidified atmosphere with 5% CO2 [5].
Binding and internalization characteristics of all ligands were compared using LS174T-PSMA and wildtype LS174T cells. Cells were cultured to confluency in 6-wells plates followed by incubation at 37 °C for 2 h in 1 ml binding buffer (RPMI/0.5% BSA) with 50,000 counts per minute (cpm) of ^111In-labeled ligand (0.1-0.25 pmol/well). Nonspecific binding was determined by coincubation with 2-(phosphonomethyl)pentane-1,5-dioic acid (2-PMPA, 21.57 µM). PSMA-specific binding was defined as nonspecific binding subtracted from total binding. To retrieve the membrane-bound fraction, cells were washed with PBS twice and incubated with acid buffer (0.1 M acetic acid, 154 mM NaCl, pH 2.6) for 10 minutes at 0 °C. After incubation, the membrane bound fraction (in acid buffer) was collected, cells were washed, lysed with 0.1 M NaOH and cell lysis (intercellular activity) was collected. Membrane-bound activity and intercellular activity fractions were measured in a gamma-counter (2480 WIZARD^2 Automatic Gamma Counter, PerkinElmer), [25]. Human serum was used to determine the in vitro serum stability of the multimodal ligands (0.8 µg/ml serum, 5 MBq/μg labeling). After incubation for 2 h at 37°C, serum proteins were precipitated by adding a 1:1 (v/v) volume of acetonitrile followed by 5 min of centrifugation at 3220×g. Stability was evaluated by RP-HPLC analysis after 2 h of incubation at 37 °C. […] Experimental details are described in the supplementary materials and methods.

[2] = Lipophilicity, PBS/n-octanol; assay type: physicochemical; conditions: radiolabeled ligand
Protocol: Tubes were vortexed vigorously for 1 min and centrifuged for 5 min at 201×g for phase separation. The concentration of radioactivity in a defined volume of each layer was measured in a well-type gamma-counter.

[3] = test system: LS174T-PSMA and LS174T xenografts; assay: Biodistribution of 111In-labeled multimodal ligands; assay type: in vivo, BALB/c nude mice; conditions: 0.3 nmol, 2 h p.i.
Protocol: Animal experiments were performed in 8-10 weeks old male BALB/c nude mice (Janvier). Animals were housed in individually ventilated cages (Blue line IVC, 4-5 mice per cage) under nonsterile standard conditions with cage enrichment present and free access to chlorophyll-free animal chow (Sniff GmbH) and water. Mice were subcutaneously inoculated with 3.0 x 10^6 LS174T-PSMA cells in the left flank and 1.5 × 10^6 LS174T cells in the right flank, diluted in 200 μL of complete RPMI 1640 medium. Eleven days after tumor cell inoculation when xenografts were approximately 0.1 cm^3, tracers were injected intravenously via the tail vein. The researchers were not blinded for the experimental groups and tumor-bearing mice were block-randomized into groups based on tumor size. All experiments were approved by the institutional Animal Welfare Committee of the Radboud university medical center and were conducted in accordance to the guidelines of the Revised Dutch Act on Animal Experimentation.
Mice were injected intravenously with 10 MBq ^111In-labeled PSMA ligands (0.3 nmol, molar activity 33.3 MBq/nmol) in PBS/0.5% BSA. Two hours post injection, mice were euthanized by CO2/O2-asphyxation and images were acquired with the IVIS fluorescence imaging system (Xenogen VivoVision IVIS Lumina II, Caliper Life Sciences), using an acquisition time of 10 s. Subsequently, µSPECT/CT images were acquired (U-SPECT II, MILabs) with a 1.0 mm diameter pinhole mouse collimator tube [26]. Mice were scanned for 30 min followed by a CT scan (spatial resolution 160 μm, 65 kV, 615 μA) for anatomical reference. µSPECT/CT scans were reconstructed with MILabs reconstruction software, using an ordered-subset expectation maximization algorithm, energy windows 154 - 188 keV and 220-270 keV, 3 iterations, 16 subsets, voxel size of 0.4 mm. SPECT/CT scans were analyzed and maximum intensity projections (MIPs) were created using the Inveon Research Workplace software version 4.1 (Siemens Preclinical Solutions). NIRF images were analyzed using Living Image software version 4.2 (Caliper Life Sciences). Tissues of interest were dissected, weighed and measured for radioactivity in a gamma-counter as described above. In the fluorescence-guided surgery feasibility study, pre-operative imaging was performed to visualize tumor tissue. After white light resection, NIRF imaging was repeated to assess if any remaining tumor was present.

T1 sequence (Q04609 whole entry): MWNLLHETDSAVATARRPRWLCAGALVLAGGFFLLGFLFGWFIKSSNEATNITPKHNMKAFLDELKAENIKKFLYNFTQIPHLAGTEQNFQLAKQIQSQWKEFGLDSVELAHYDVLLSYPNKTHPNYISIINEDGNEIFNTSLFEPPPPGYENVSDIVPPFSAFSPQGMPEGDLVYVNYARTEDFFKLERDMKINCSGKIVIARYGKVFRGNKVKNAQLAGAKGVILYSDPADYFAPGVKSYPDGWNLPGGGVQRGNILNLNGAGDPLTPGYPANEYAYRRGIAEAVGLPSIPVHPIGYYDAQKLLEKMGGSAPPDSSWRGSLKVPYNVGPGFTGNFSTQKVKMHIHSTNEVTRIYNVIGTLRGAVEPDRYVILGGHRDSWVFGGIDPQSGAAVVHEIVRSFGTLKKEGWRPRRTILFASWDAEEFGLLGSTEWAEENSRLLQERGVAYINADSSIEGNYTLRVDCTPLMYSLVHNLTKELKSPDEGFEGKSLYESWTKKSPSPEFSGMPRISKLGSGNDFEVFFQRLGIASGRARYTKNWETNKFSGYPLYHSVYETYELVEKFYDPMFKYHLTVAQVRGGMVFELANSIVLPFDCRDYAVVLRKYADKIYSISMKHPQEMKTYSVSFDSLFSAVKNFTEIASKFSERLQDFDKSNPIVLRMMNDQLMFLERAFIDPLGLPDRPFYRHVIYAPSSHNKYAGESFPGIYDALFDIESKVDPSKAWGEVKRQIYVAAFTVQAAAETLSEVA

Structure (SMILES)	Internalized fraction [1]	Membrane bound fraction [1]	LogD [2]	Adrenals [3] [%ID/g]	Blood [3] [%ID/g]	Bone [3] [%ID/g]	Bone marrow [3] [%ID/g]	Duodenum [3] [%ID/g]	Heart [3] [%ID/g]	Kidney [3] [%ID/g]	Liver [3] [%ID/g]	Lung [3] [%ID/g]	Muscle [3] [%ID/g]	Pancreas [3] [%ID/g]	Prostate [3] [%ID/g]	Salivary glands [3] [%ID/g]	Spleen [3] [%ID/g]	Stomach [3] [%ID/g]	Tumor+ LS174T-PSMA [3] [%ID/g]	Tumor- LS174T [3] [%ID/g]	further results
C[Si](C)(CCC[N+](CCCS(=O)(=O)O)(CCCS(=O)(=O)O)CCCS(=O)(=O)O)O[Si-2]123(O[Si](C)(C)CCC[N+](CCCS(=O)(=O)O)(CCCS(=O)(=O)O)CCCS(=O)(=O)O)n4c5c6ccccc6c4N=C4c6cccc(OCCCOC(=O)NCCCCCC(=O)NCCCC[C@H](NC(=O)[C@H](CCC(=O)O)NC(=O)CN7CCN(CC(=O)O)CCN(CC(=O)O)CCN(CC(=O)O)CC7)C(=O)N[C@H](Cc7ccccc7)C(=O)N[C@@H](CCC(=O)O)C(=O)N[C@@H](CCC(=O)O)C(=O)NCCCCCC(=O)NCCCC[C@H](NC(=O)N[C@@H](CCC(=O)O)C(=O)O)C(=O)O)c6C(=[N+]41)N=c1c4ccccc4c(n12)=NC1=[N+]3C(=N5)c2ccccc21.[Na+].[Na+].[Na+].[Na+] [N122]	1.4 ± 0.20	0.6 ± 0.01	-2.8 ± 0.06	1.7	0.6	0.7	0.4	0.4	0.5	72.5	1 ± 0.2	1 ± 0.3	0.2	0.3	0.4	0.5	1.6	0.4	7.6	0.5	Tumor/Blood ratio [3]: 13.9; Tumor/Kidney ratio [3]: 0.2; Tumor/Liver ratio [3]: 8.1; Tumor/Muscle ratio [3]: 48.4; Tumor/Negative tumor ratio [3]: 17.8; Tumor/Prostate ratio [3]: 21.5; Tumor/Salivary gland ratio [3]: 18.6; Tumor/Spleen ratio [3]: 5.2
C[Si](C)(CCC[N+](CCCS(=O)(=O)O)(CCCS(=O)(=O)O)CCCS(=O)(=O)O)O[Si-2]123(O[Si](C)(C)CCC[N+](CCCS(=O)(=O)O)(CCCS(=O)(=O)O)CCCS(=O)(=O)O)n4c5c6ccccc6c4N=C4c6cccc(OCCCOC(=O)NCCCCCC(=O)NCCCC[C@H](NC(=O)CCOCCOCCOCCOCCNC(=O)CCC(C(=O)O)N7CCN(CC(=O)O)CCN(CC(=O)O)CCN(CC(=O)O)CC7)C(=O)N[C@H](Cc7ccccc7)C(=O)N[C@@H](CCC(=O)O)C(=O)N[C@@H](CCC(=O)O)C(=O)NCCCCCC(=O)NCCCC[C@H](NC(=O)N[C@@H](CCC(=O)O)C(=O)O)C(=O)O)c6C(=[N+]41)N=c1c4ccccc4c(n12)=NC1=[N+]3C(=N5)c2ccccc21.[Na+].[Na+].[Na+].[Na+] (some centres unmarked) [NJ26]	1.8 ± 0.03	0.5 ± 0.05	-2.4 ± 0.13	1.5	0.3	0.2	0.4	0.3	0.3	59.9	0.6	0.5	0.2	0.2	0.5	0.4	0.9	0.3	11.5	0.4	Tumor/Blood ratio [3]: 49.1; Tumor/Kidney ratio [3]: 0.2; Tumor/Liver ratio [3]: 21.3; Tumor/Muscle ratio [3]: 116.4; Tumor/Negative tumor ratio [3]: 31.7; Tumor/Prostate ratio [3]: 29.4; Tumor/Salivary gland ratio [3]: 35; Tumor/Spleen ratio [3]: 14.2
